The subject of one data set is C20 microglial cells. The experiment in a line: TNFα protein in supernatants of Tat-treated microglia (Luminex cytokine detection assay). The conditions noted are these: C20 microglia exposed 24 h to equivalent inputs of Tat-containing HeLa media. Format: cell-based, human. As to the method: (§1) C20 microglia were exposed for 24 h, to equivalent inputs of HeLa cell media containing Tat protein (Tat-B*, Tat-B* R57S, Tat-C or Tat-C S57R or empty vector) as described above for cytokine expression. As a control, spent media of HeLa cells transfected with an empty pcDNA 3.1 construct was used. Approximately 50, 000 cells containing a mixture of human fetal neurons and glia plated on 35 mm MatTek plates were treated with 200 µl of spent media from Tat-exposed microglial cultures for 30 h.

In data set [1] the test system is primary human neuron-astrocyte co-cultures. Description: Treatment of neurons with spent media from Tat-exposed microglia. It is filed as cell-based. As to conditions: co-cultures treated 30 h with 200 µl spent media from Tat-exposed microglia, neurotubulin staining. As to the method:
as §1
For the purpose of imaging of neurons and quantifying axonal/dendritic lengths, neurons treated as above were fixed with 4% PFA for 15 min and washed with 1x PBS. Cells were permeabilized with 0.1% Triton X-100 for 3 minutes and washed as before. Non-specific sites were blocked with 1X SBS buffer (50 mM EDTA, 0.01% Fish Gelatin, 0.1 g BSA, 1% Horse serum in PBS) for 1 h at room temperature and the cells washed. Cells were stained with anti-neurotubulin antibodies, anti-GFAP antibodies and DAPI to stain neurons, glial cells and nuclei respectively. Neuronal images were captured using a Leica Confocal TCS SP5 microscope (Leica Microsystems, Bannockburn, IL). Axonal/dendritic lengths were quantified using Volocity 6.3 software.

Data set [2] concerns h-Hu_C20 human microglial cells. Description: qRT-PCR of cytokine gene expression in C20 cells exposed to Tat. Format: cell-based. As to conditions: equivalent levels of Tat proteins applied; compared with position 57 variant of the same clade. As for the experimental part:
We transfected 2 × 10^6 HeLa cells with pEGFP, pcDNA 3.1 and the plasmids expressing the four Tat variants. At 24 hours post transfection, media were collected and Tat ELISA performed to determine the amount of Tat present. C20 microglia (2 × 10^6) were incubated with equal amounts of Tat media for 24 h. PMA (5 ng) or LPS (5 ng) were also included in separate wells as controls. C20 cells were washed with PBS, treated with trypsin, pelleted by centrifugation at 500 × g for 10 minutes, and total cell RNA isolated using an RNeasy Kit (Qiagen). RNA was reverse transcribed in a first-strand cDNA synthesis reaction (GoScript, Promega), using oligo dT primers. The cDNA was diluted to 100 ng per 3 μL in each reaction well, and combined with 2x Taqman Gene Expression Master Mix (ThermoFisher) and Taqman Gene Expression Assay primer-probes: GAPDH (Hs02758991_g1), IL6 (Hs00985639_m1), IL8 (Hs00174103_m1), IL-1β (Hs00174097_m1) or CXCL1 (Hs00236937_m1). Each sample was assayed in triplicate on a 384-well plate, and run under standard qRT-PCR cycling conditions on a 7900HT instrument (ABI).
A general note: Real-time PCR tracks product formation cycle by cycle.

Data set [3] concerns PMA-differentiated THP-1 cells. The experiment in a line: Confocal microscopy of labeled CPP uptake. As to conditions: 1 μM peptide, 37 °C, 30 minutes, trypsin to strip surface-bound CPP, fluorescence 488 nm. It is filed as cell-based.
Procedure: Approximately 4 × 10^5 THP-1 cells were plated in 35 mm MatTek cover dishes in media containing 10 nM PMA to induce adherence and differentiation. After 48 h the media was changed to RPMI/FBS without PMA. Thirty minutes before adding the labeled-CPPs, cell media were replaced with low serum (1% FBS) RPMI. THP-1 cells were treated with CPP for 30 minutes at 37 °C, washed twice with phosphate buffered saline (PBS) in 10% FBS, and incubated with 0.05% trypsin for 10 minutes to digest any surface-bound CPPs. Cells were washed twice with PBS/FBS and then incubated for 20 minutes in Hank’s Buffered Salt Solution (HBSS) with 1X diluted WGA-633 cell membrane stain (Life Technologies). […] Cells were imaged using a Leica SP8 Confocal Microscope and collected fluorescence data from 405 nm (DAPI stained cell nuclei), 488 nm (internalized labeled-CPP signal), and 633 nm (WGA-633 stained plasma membrane) channels as a series of Z-stacks. Analysis of cells with red and green fluorescence was conducted using Image J. The perimeter of each cell was circled using the red stain as a guide. Subsequently, mean intensity of green fluorescence contained in each cell was measured. For each condition, three random fields of view were analyzed.
Another data set concerns 293T cells. Description: Flow cytometry of labeled CPP uptake. As to conditions: for effect of soluble heparin on CPP uptake: 293T cells incubated with labeled CPPs and increasing concentrations of soluble heparin; for decrease of CPP uptake at 4 °C compared with 37 °C: 2 μM CPP, 4 °C (10 min pre-incubation) vs 37 °C. Format: cell-based, human. As for the experimental part:
293T cells were plated in 12-well plates at 2.5 × 10^5 cells per well, to achieve approximately 70% - 80% confluence by the next day. Thirty minutes before the experiment, cell medium was changed to low-serum DMEM with 1% Pen-Strep. Cells were washed once with PBS, treated with Tat-CPP in low-serum DMEM, and placed in either a tissue-culture incubator (37 °C/5% CO2) or a refrigerator (4 °C)(samples treated at 4 °C were pre-incubated in refrigerator for 10 minutes before CPP treatment). Cells were gently washed twice with PBS (w/10%FBS), then treated with 300 µl of pre-warmed 0.05% trypsin for 5 min, to detach cells and enzymatically digest surface-bound Tat-CPP. Cells were resuspended in 1 ml PBS (with 10% FBS and 2 mM EDTA), and peptide uptake assessed by flow cytometry (FACScalibur). Live cells were gated using forward-scatter and side-scatter ratio, then interrogated >10,000 live-cell events each for fluorescence signal emission at 488 nm. Data was analyzed using FlowJo software v9.3.3 (FlowJo LLC). To adjust for differences in instrument settings and voltage adjustments between experiments we transformed the raw MFI values within each experiment into values proportional to the greatest MFI reading in that particular experiment. Heparinase enzymes were used to pre-treat cells by combination of Heparinase I and III at 17 IU and 1 IU, respectively, per mL of plain DMEM. Cells were treated with enzymes for 2 h in an 37 °C, then washed with PBS and exposed to CPPs as above.
For orientation: Flow cytometry measures light scatter and fluorescence of single cells or particles in a stream.

The subject of data set [4] is interaction of Tat with HSPGs on TZM-bl cells. Description: Inhibition of transcellular transactivation by HSPG competitive antagonists. It is filed as cell-based, human. The conditions noted are these: TZM-bl cells exposed to Tat-B-WT produced in HeLa cells. As to the method: HeLa cells were seeded in 6-well plates at 7.5 × 10^5 cells per well and transfected with 2.5 μg of Tat expression plasmid DNA (Lipofectamine 3000, Invitrogen). After 6 h, the media was replaced with DMEM/10% FBS. Next day, TZM-bl reporter cells were seeded in a 24-well plate, at 1.5 × 10^5 cells per well. Similarly, C20 microglial cells were seeded in a 12-well plate, at 3 × 10^5 cells per well. After allowing 5–6 h for cell attachment, supernatant from the tat-transfected HeLa cells was collected, which was centrifuged at 500 × g for 10 minutes to remove debris and dead cells. Importantly, at this step and all others involving handling of Tat-containing media, siliconized tubes and tips were used to minimize the adsorption of Tat to surfaces. Tat-transfected HeLa supernatants were used to replace either TZM-bl media (400 μL) or C20 media (800 μL), and the cells incubated for 12 h (C20) or 24 h (TZM-bl).
TZM-bl cell lysates were harvested and stored at −80 °C until luciferase activity was measured. Frozen TZM-bl cell lysates were thawed on ice for 30 minutes, centrifuged at 14,000 × g for 2 minutes, and the protein concentration in the supernatants measured by BCA protein assay. […] The side of the plate was gently tapped and each sample was immediately assayed for luciferase activity using a plate-reader, measuring each sample in Relative Light Units (RLU) (PerkinElmer VICTOR-2).

In data set [5] the test system is LTR-driven luciferase reporter gene in TZM-bl cells. Format: cell-based, human.

These results are taken from paper PMC6397180 (Scientific Reports, 2019).

Where “and” joins values, the source holds several entries; their conditions need not be identical. Equal values may be shown once.

For the molecule “Tat-B*: Tat-B variant with R7N and K12N mutations and C-terminal myc tag”, the “TNFα protein levels in supernatants of Tat-treated microglia” value in the data set on C20 microglial cells is 19.2 ng/mL. Also, the “appearance of neuronal processes (dendrites and axons)” value in data set [1] is “shorter and thinner”. Moreover, in data set [2], the “inflammatory cytokine gene transcripts IL-6, IL-8, IL-1β and CXCL1” value was “higher levels”.

Turning to “GRKKRRQRRR [CPP-R57, Tat CPP decapeptide (residues 48–57) of HIV-1B, N-terminal HiLyte Fluor 488 tag]”, the “internalization of labeled peptide (confocal microscopy)” value in data set [3] is recorded as “higher amount of labeled peptide”. Besides, the “effect of soluble heparin on CPP uptake” value in the data set with 293T cells is on record as “dose-dependent inhibition of uptake”. Besides, the “decrease of CPP uptake at 4 °C compared with 37 °C” value in the data set on 293T cells (293T cells, flow cytometry) was ~ 75%. In the data set with 293T cells (293T cells, flow cytometry, 2 μM peptide, n = 4), the “CPP-R57 uptake relative to CPP-S57” value is 3–4 fold.

In the case of `Cc1ccc(C(=O)Nc2ccc(S(=O)(=O)O)c3cc(S(=O)(=O)O)cc(S(=O)(=O)O)c23)cc1NC(=O)c1cccc(NC(=O)Nc2cccc(C(=O)Nc3cc(C(=O)Nc4ccc(S(=O)(=O)O)c5cc(S(=O)(=O)O)cc(S(=O)(=O)O)c45)ccc3C)c2)c1` [suramin], the “concentration sufficient to diminish transcellular transactivation of extracellular Tat to near background levels” value in data set [4] was found to be 100 µg/mL.

Consider heparin, for which, in data set [4], the “concentration sufficient to diminish transcellular transactivation of extracellular Tat to near background levels” value came out at 10 µg/mL.

Take “GRKKRRQRRS [CPP-S57, Tat CPP decapeptide (residues 48–57) of HIV-1C, N-terminal HiLyte Fluor 488 tag]”: the “uptake in dose response” value in the data set with 293T cells (293T and THP1 cells, increasing concentrations of CPP, flow cytometry) is on record as “reduced uptake”. Further, the “effect of soluble heparin on CPP uptake” value in the data set on 293T cells is on record as “dose-dependent inhibition of uptake”. Also, in the data set on 293T cells (293T cells, flow cytometry), the “decrease of CPP uptake at 4 °C compared with 37 °C” value is 50% and ~ 50%.

B1: Tat-B-49AAA51: Tat-B with triple alanine substitution in residues 49-RKK-51 (protein, UniProt P04608 1-86, looked up, variant R49A K50A K51A)
Protein Tat: MEPVDPRLEPWKHPGSQPKTACTNCYCKKCCFHCQVCFITKALGISYGAAARRQRRRAHQNSQTHQASLSKQPTSQPRGDPTGPKE
Take B1: in data set [5], the “transcriptional activity relative to TatB-WT” value is 10%. For the same molecule, the “decrease of luciferase output upon direct transfection” value in data set [5] (TZM-bl cells directly transfected, relative to Tat-B-WT) is “approximately 90%”.
